According to publication PMC11594716, “Rhodanine–Piperazine Hybrids as Potential VEGFR, EGFR, and HER2 Targeting Anti-Breast Cancer Agents” (International Journal of Molecular Sciences, 2024):

Experiments:
Assay type in all cases: cell-based, human
MDA-MB-231 cell line = experiment: MTT cytotoxicity assay, MDA-MB-231 breast cancer cells; details: for Selectivity index SI MDA-MB-231: IC50(BJ)/IC50(MDA-MB-231); for IC50: MTT, 48 h incubation
Experimental: (§1) Cytotoxicity of tested compounds was evaluated against breast cancer cell lines (MDA-MB-468, MDA-MB-231, MCF-7, and T47D) and normal human fibroblast BJ cell line as a control. All tested cell lines were obtained from the American Type Culture Collection (ATCC, Manassas, VA, USA). MDA-MB-468 and MDA-MB-231 were cultured in F12-K medium (Corning, New York City, NY, USA), MCF-7 and BJ in EMEM medium (Corning, New York City, NY, USA), and T47D in RPMI medium (Corning, New York City, NY, USA). All of these culture media were supplemented with 10% heat-inactivated FBS (PAN-Biotech, Aidenbach, Germany) and antibiotics (100 U/mL of penicillin, 100 μg/mL of streptomycin, and 0.25 μg/mL amphotericin B, respectively; Sigma-Aldrich, St. Louis, MO, USA) in a humidified 5% CO2 atmosphere at 37 °C. The cells were used exclusively for 10 passages.
(§2) The cells were seeded in 96-well plates at a concentration of 5 × 10^4 cells/mL and incubated at 37 °C with 5% CO2 air. When 70–80% culture confluence was achieved the tested compounds were added. […] The cell viability assessment was measured using the MTT assay (Invitrogen, Waltham, MA, USA) based on the ability of living cells to reduce […] tetrazolium salt, by cellular dehydrogenases, to water-insoluble purple formazan crystals. MTT solution (4 mg/mL) was added to the culture after 48 h of incubation with the tested compounds. Following 4 h of incubation, the medium with MTT salt was removed and the obtained crystals were dissolved in DMSO. The solution absorbency was measured at 570 nm using a PowerWave™ microplate spectrophotometer (Bio-Tek Instruments, Winooski, VT, USA). Each experiment was performed twice with measurement in triplicate. The IC50 values were determined using the AAT Bioquest IC50 calculator with a four parameter logistic regression model (AAT Bioquest, Inc. Pleasanton, CA, USA (14 April 2024). Quest Graph™ IC50 Calculator. AAT Bioquest. https://www.aatbio.com/tools/ic50-calculator, accessed on 12 October 2024).

T47D cell line = experiment: MTT cytotoxicity assay, T47D breast cancer cells; details: for Selectivity index SI T47D: IC50(BJ)/IC50(T47D); for IC50: MTT, 48 h incubation
Experimental: as §1, §2

MCF-7 cell line = experiment: MTT cytotoxicity assay, MCF-7 breast cancer cells; details: for Selectivity index SI MCF-7: IC50(BJ)/IC50(MCF-7); for IC50: MTT, 48 h incubation
Experimental: as §1, §2

MDA-MB-468 cell line = experiment: MTT cytotoxicity assay, MDA-MB-468 breast cancer cells; details: for Selectivity index SI MDA-MB-468: IC50(BJ)/IC50(MDA-MB-468); for IC50: MTT, 48 h incubation
Experimental: as §1, §2

| Compound | Selectivity index SI MDA-MB-231 (MDA-MB-231 cell line) | IC50 (MDA-MB-231 cell line) [µM] | Selectivity index SI T47D (T47D cell line) | IC50 (T47D cell line) [µM] | Selectivity index SI MCF-7 (MCF-7 cell line) | IC50 (MCF-7 cell line) [µM] | Selectivity index SI MDA-MB-468 (MDA-MB-468 cell line) | IC50 (MDA-MB-468 cell line) [µM] | IC50 (MDA-MB-231 cell line; Homo sapiens, MDA-MB-231) [µM] | IC50 (T47D cell line; Homo sapiens, T47D) [µM] | IC50 (MCF-7 cell line; Homo sapiens, MCF7) [µM] | IC50 (MDA-MB-468 cell line; Homo sapiens, MDA-MB-468) [µM] |
| --- | --- | --- | --- | --- | --- | --- | --- | --- | --- | --- | --- | --- |
| 5-{[4-(3-Fluoromethylphenyl)piperazin-1-yl]methylidene}-2-thioxo-1,3-thiazolidin-4-one [Compound 9] | 1 | > 200 | 1 | > 200 | 2.74 | 73 | 3.17 | 63 | – | – | – | – |
| O=C1NC(=S)SC1=CN1CCN(c2ccc(Cl)cc2)CC1 [Compound 5, 5-{[4-(4-Chlorophenyl)piperazin-1-yl]methylidene}-2-thioxo-1,3-thiazolidin-4-one] | 1 | – | 1 | – | 1 | – | 1.19 | – | > 200 | > 200 | > 200 | 168 |
| O=C1NC(=S)SC1=CN1CCN(c2ccc([N+](=O)[O-])cc2)CC1 [Compound 6, 5-{[4-(4-Nitrophenyl)piperazin-1-yl]methylidene}-2-thioxo-1,3-thiazolidin-4-one] | 2.17 | – | 1.08 | – | 1 | – | 3.7 | – | 92 | 186 | > 200 | 54 |
| O=C1NC(=S)SC1=CN1CCN(c2cccc(Cl)c2)CC1 [Compound 7, 5-{[4-(3-Chlorophenyl)piperazin-1-yl]methylidene}-2-thioxo-1,3-thiazolidin-4-one] | 1.27 | – | 1 | – | 1 | – | 2.1 | – | 157 | > 200 | > 200 | 95 |
| O=C1NC(=S)SC1=CN1CCN(c2cccc(F)c2)CC1 [Compound 8, 5-{[4-(3-Fluorophenyl)piperazin-1-yl]methylidene}-2-thioxo-1,3-thiazolidin-4-one] | 1.29 | – | 1 | – | 1 | – | 1 | – | 155 | > 200 | > 200 | > 200 |
| O=C1NC(=S)SC1=CN1CCN(c2ccc(Cl)c(Cl)c2)CC1 [Compound 10, 5-{[4-(3,4-Dichlorophenyl)piperazin-1-yl]methylidene}-2-thioxo-1,3-thiazolidin-4-one] | 1.90 | – | 2.2 | – | 6.45 | – | 3.63 | – | 105 | 91 | 31 | 55 |
| COc1cccc(N2CCN(C=C3SC(=S)NC3=O)CC2)c1 [Compound 11, 5-{[4-(3-Methoxyphenyl)piperazin-1-yl]methylidene}-2-thioxo-1,3-thiazolidin-4-one] | 1.25 | – | 1 | – | 1 | – | 2.17 | – | 160 | > 200 | > 200 | 92 |
| O=C1NC(=S)SC1=CN1CCN(C(c2ccc(F)cc2)c2ccc(F)cc2)CC1 [Compound 12, 5-({4-[Bis(4-fluorophenyl)methyl]piperazin-1-yl}methylidene)-2-thioxo-1,3-thiazolidin-4-one] | 1.36 | – | 1 | – | 5.56 | – | 5.41 | – | 147 | > 200 | 36 | 37 |
| O=C1C(=CN2CCN(c3ccc(Cl)cc3)CC2)SC(=S)N1c1ccccc1 [Compound 13, 5-{[4-(4-Chlorophenyl)piperazin-1-yl]methylidene}-3-phenyl-2-thioxo-1,3-thiazolidin-4-one] | 1.38 | – | 1 | – | 2.99 | – | 1.12 | – | 145 | > 200 | 67 | 179 |
| O=C1C(=CN2CCN(c3cccc(Cl)c3)CC2)SC(=S)N1c1ccccc1 [Compound 14, 5-{[4-(3-Chlorophenyl)piperazin-1-yl]methylidene}-3-phenyl-2-thioxo-1,3-thiazolidin-4-one] | 1 | – | 1 | – | 1 | – | 1 | – | > 200 | > 200 | > 200 | > 200 |
| O=C1C(=CN2CCN(C(c3ccc(F)cc3)c3ccc(F)cc3)CC2)SC(=S)N1c1ccccc1 [Compound 15, 5-({4-[Bis(4-fluorophenyl)methyl]piperazin-1-yl}methylidene)-3-phenyl-2-thioxo-1,3-thiazolidin-4-one] | 2.63 | – | 1.06 | – | 4.44 | – | 4.26 | – | 76 | 189 | 45 | 47 |
| O=C1C(=CN2CCN(c3cccc(F)c3)CC2)SC(=S)N1c1ccccc1 [Compound 16, 5-{[4-(3-Fluorophenyl)piperazin-1-yl]methylidene}-3-phenyl-2-thioxo-1,3-thiazolidin-4-one] | 1.12 | – | 1 | – | 1 | – | 1 | – | 179 | > 200 | > 200 | > 200 |
| COc1cccc(N2CCN(C=C3SC(=S)N(c4ccccc4)C3=O)CC2)c1 [Compound 17, 5-{[4-(3-Methoxyphenyl)piperazin-1-yl]methylidene}-3-phenyl-2-thioxo-1,3-thiazolidin-4-one] | 1.69 | – | 1 | – | 1.18 | – | 3.45 | – | 118 | > 200 | 169 | 58 |
